Laboratory results as given in patent US9617266B2, “Imidazopyrimidine derivatives” (Merck Patent GmbH, priority 2013, dated 2017).
Counter-ions that a name gives are not always drawn.

Target: GCN2 (Homo sapiens, UniProt Q9P2K8)
Assay: GCN2 enzyme assay (TR-FRET Lanthascreen, GFP-eIF2alpha phosphorylation)
Type: biochemical
Settings: 10 μM ATP, 80 nM GFP-eIF2a substrate, 30 nM GCN2, room temperature
From the text: GCN2: Assay Principle & Conditions
This assay can quantificate the activity of the serin kinase GCN2 (general control non-derepressible-2).
This kinase is involved in the stress metabolism of cells. It is activated upon starvation (amino acid depletion). Its natural substrate is eIF2a (eukaryotic initiation factor 2 alpha subunit), a translation factor, which gets activated (phosphorylated) by GCN2 in case of an amino acid bottleneck in the cells. This in turn leads to a halt of the protein synthesis. Inhibition of GCN2 results in stopping this mechanism: The cell can not stop protein production upon “starvation” stress.
The assay is run in two steps: the enzymatic reaction and the detection step. In the first step GCN2 is incubated with 10 μM ATP and 80 nM of the GFP-labelled substrate elF2alpha at room temperature.
The enzymatic reaction is stopped by addition of EDTA. The amount of phosphorylated elF2alpha is determined by TR-FRET (Lanthascreen): A complex is formed consisting of antibody and GFP labelled phospho-eIF2a, which allows a FRET upon exitation at 340 nm.
Final Concentrations in the Enzymatic Reaction

Sequence of GCN2 (Q9P2K8 whole entry, species assumed): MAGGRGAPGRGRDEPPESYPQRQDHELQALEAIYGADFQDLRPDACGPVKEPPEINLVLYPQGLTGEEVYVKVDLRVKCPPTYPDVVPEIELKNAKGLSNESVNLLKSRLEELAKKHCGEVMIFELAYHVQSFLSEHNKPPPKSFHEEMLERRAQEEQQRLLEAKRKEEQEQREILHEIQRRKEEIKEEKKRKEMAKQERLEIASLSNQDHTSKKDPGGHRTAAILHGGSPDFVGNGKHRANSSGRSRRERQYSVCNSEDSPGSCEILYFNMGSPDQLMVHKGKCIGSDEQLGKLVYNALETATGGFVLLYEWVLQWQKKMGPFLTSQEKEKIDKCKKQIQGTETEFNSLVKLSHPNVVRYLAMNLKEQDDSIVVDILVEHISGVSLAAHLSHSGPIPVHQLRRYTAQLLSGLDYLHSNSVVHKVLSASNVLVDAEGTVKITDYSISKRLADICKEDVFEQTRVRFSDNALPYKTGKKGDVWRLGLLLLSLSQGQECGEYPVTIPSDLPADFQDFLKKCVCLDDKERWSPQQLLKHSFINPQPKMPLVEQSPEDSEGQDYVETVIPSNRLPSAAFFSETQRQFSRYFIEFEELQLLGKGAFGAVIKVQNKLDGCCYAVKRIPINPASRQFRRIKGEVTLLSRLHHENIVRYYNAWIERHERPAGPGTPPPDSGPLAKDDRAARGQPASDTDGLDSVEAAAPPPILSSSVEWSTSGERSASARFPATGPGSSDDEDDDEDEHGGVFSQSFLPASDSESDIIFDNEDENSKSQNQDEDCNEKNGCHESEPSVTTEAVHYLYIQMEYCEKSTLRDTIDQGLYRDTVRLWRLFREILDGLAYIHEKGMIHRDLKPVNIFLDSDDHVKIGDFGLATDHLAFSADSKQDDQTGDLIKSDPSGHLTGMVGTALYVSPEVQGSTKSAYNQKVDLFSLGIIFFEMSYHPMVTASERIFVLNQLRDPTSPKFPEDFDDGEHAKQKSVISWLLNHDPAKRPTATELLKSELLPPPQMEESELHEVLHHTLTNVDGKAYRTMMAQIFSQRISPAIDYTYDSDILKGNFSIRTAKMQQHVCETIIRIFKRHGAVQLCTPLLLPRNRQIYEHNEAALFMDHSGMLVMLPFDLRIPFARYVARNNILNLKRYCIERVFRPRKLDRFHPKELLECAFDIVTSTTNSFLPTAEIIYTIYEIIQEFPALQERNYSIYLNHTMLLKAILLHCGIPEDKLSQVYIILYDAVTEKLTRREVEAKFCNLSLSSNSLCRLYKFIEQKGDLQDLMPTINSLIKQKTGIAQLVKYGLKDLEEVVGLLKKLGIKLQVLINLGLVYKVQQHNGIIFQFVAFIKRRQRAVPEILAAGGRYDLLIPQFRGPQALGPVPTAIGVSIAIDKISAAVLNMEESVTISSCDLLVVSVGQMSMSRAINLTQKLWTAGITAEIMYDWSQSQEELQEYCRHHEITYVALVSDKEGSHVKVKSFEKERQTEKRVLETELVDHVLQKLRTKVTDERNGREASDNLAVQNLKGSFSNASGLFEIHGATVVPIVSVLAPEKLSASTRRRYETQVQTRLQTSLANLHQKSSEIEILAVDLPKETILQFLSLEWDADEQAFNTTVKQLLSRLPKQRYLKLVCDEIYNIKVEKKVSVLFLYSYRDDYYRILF

Row | IC50 [nM] | SMILES
1 | 5000 to 10000 | O[C@H]1CC[C@H](Nc2ncc3ncn(-c4ccc(I)c(F)c4)c3n2)C1 (relative stereo) [Compound A27, (trans)-3-[9-(3-fluoro-4-iodo-phenyl)-9H-purin-2-ylamino]-cyclopentanol]
2 | 1000 to 5000 | COCCn1cc(-c2ccc(-n3cnc4cnc(N[C@H]5CC[C@H](O)C5)nc43)cc2F)cn1 (relative stereo) [Compound A29, (trans)-3-(9-{3-fluoro-4-[1-(2-methoxy-ethyl)-1H-pyrazol-4-yl]-phenyl}-9H-purin-2-ylamino)-cyclopentanol]
3 | 1000 to 5000 | Cn1cc(-c2ccc(-n3cnc4cnc(N[C@@H]5CC[C@@H](O)C5)nc43)cc2)cn1 (relative stereo) [Compound A30, (trans)-3-{9-[4-(1-Methyl-1H-pyrazol-4-yl)-phenyl]-9H-purin-2-ylamino}-cyclopentanol]
4 | < 1000 | CCOc1ccc(-n2cnc3cnc(Nc4cnn(C5CCN(C)CC5)c4)nc32)cc1 [Compound A1, 9-(4-ethoxyphenyl)-N-(1-(1-methylpiperidin-4-yl)-1H-pyrazol-4-yl)-9H-purin-2-amine]
5 | < 1000 | COCCOc1ccc(-n2cnc3cnc(Nc4cnn(C5CCN(C)CC5)c4)nc32)cc1 [Compound A2, 9-(4-(2-methoxyethoxy)phenyl)-N-(1-(1-methylpiperidin-4-yl)-1H-pyrazol-4-yl)-9H-purin-2-amine]
6 | < 1000 | NC(=O)c1ccc(-n2cnc3cnc(Nc4cnn(C5CCOCC5)c4)nc32)cc1 [Compound A3, 4-(2-((1-(tetrahydro-2H-pyran-4-yl)-1H-pyrazol-4-yl)amino)-9H-purin-9-yl)benzamide]
7 | < 1000 | CCn1cc(Nc2ncc3ncn(-c4cnn(CC)c4)c3n2)cn1 [Compound A4, N,9-bis-(1-ethyl-1H-pyrazol-4-yl)-9H-purin-2-amine]
8 | < 1000 | CCn1cc(-n2cnc3cnc(Nc4cnn(C5CCOCC5)c4)nc32)cn1 [Compound A5, 9-(1-ethyl-1H-pyrazol-4-yl)-N-(1-(tetrahydro-2H-pyran-4-yl)-1H-pyrazol-4-yl)-9H-purin-2-amine]
9 | 1000 to 5000 | CCOc1ccc(-n2c(C)nc3cnc(Nc4cnn(C5CCN(C)CC5)c4)nc32)cc1 [Compound A6, 9-(4-ethoxyphenyl)-8-methyl-N-(1-(1-methylpiperidin-4-yl)-1H-pyrazol-4-yl)-9H-purin-2-amine]
10 | < 1000 | CCn1cc(Nc2ncc3ncn(-c4ccc5c(c4)NC(=O)C5(C)C)c3n2)cn1 [Compound A9, 6-(2-((1-ethyl-1H-pyrazol-4-yl)amino)-9H-purin-9-yl)-3,3-dimethylindolin-2-one]
11 | < 1000 | CCOc1ccc(-n2cnc3cnc(Nc4cnn(CCn5cccn5)c4)nc32)cc1 [Compound A10, N-(1-(2-(1H-pyrazol-1-yl)ethyl)-1H-pyrazol-4-yl)-9-(4-ethoxyphenyl)-9H-purin-2-amine]
12 | < 1000 | CCOc1ccc(-n2cnc3cnc(Nc4cnn(CCCC5CCNCC5)c4)nc32)cc1 [Compound A11, 9-(4-ethoxyphenyl)-N-(1-(3-(piperidin-4-yl)propyl)-1H-pyrazol-4-yl)-9H-purin-2-amine hydrochloride]
13 | < 1000 | Fc1cc(-n2cnc3cnc(Nc4cnn(C5CCOCC5)c4)nc32)ccc1Cl [Compound A12, 9-(4-chloro-3-fluorophenyl)-N-(1-(tetrahydro-2H-pyran-4-yl)-1H-pyrazol-4-yl)-9H-purine-2-amine]
14 | < 1000 | COCCN1CCC(n2cc(Nc3ncc4ncn(-c5ccc(OC)cc5)c4n3)cn2)CC1 [Compound A13, N-(1-(1-(2-methoxyethyl)piperidin-4-yl)-1H-pyrazol-4-yl)-9-(4-methoxyphenyl)-9H-purin-2-amine]
15 | < 1000 | COc1ccc(-n2cnc3cnc(Nc4cnn(C5CCN(C)CC5)c4)nc32)cc1 [Compound A16, 9-(4-methoxyphenyl)-N-(1-(1-methylpiperidin-4-yl)-1H-pyrazol-4-yl)-9H-purin-2-amine]
16 | < 1000 | CCOc1ccc(-n2cnc3cnc(Nc4cnn(C5CCC(N)CC5)c4)nc32)cc1 (stereo not shown) [Compound A17, N-(1-(4-aminocyclohexyl)-1H-pyrazol-4-yl)-9-(4-ethoxyphenyl)-9H-purin-2-amine hydrochloride]
17 | < 1000 | COc1ccc(-n2cnc3cnc(Nc4cn[nH]c4)nc32)cc1 [Compound A18, [9-(4-methoxy-phenyl)-9H-purin-2-yl]-(1H-pyrazol-4-yl)-amine]

Row | IC50 [nM] | SMILES
18 | 1000 to 5000 | COc1ccc(-n2cnc3cnc(Nc4ccn(C)n4)nc32)cc1 [Compound A19, [9-(4-methoxy-phenyl)-9H-purin-2-yl]-(1-methyl-1H-pyrazol-3-yl)-amine]
19 | 5000 to 10000 | COc1ccc(-n2cnc3cnc(Nc4cnn(-c5ccccc5)c4)nc32)cc1 [Compound A20, [9-(4-methoxy-phenyl)-9H-purin-2-yl]-(1-phenyl-1H-pyrazol-4-yl)-amine]
20 | < 1000 | Cn1cc(Nc2ncc3ncn(-c4ccc(-c5cnn(C)c5)cc4)c3n2)cn1 [Compound A21, (1-methyl-1H-pyrazol-4-yl)-{9-[4-(1-methyl-1H-pyrazol-4-yl)-phenyl]-9H-purin-2-yl}-amine]
21 | 1000 to 5000 | CCn1cc(Nc2ncc3ncn(-c4ccc(C(=O)NCC(O)CO)cc4)c3n2)cn1 (stereo not shown) [Compound A22, N-(2,3-dihydroxy-propyl)-4-[2-(1-ethyl-1H-pyrazol-4-ylamino)-purin-9-yl]-benzamide]
22 | < 1000 | Cn1cc(Nc2ncc3ncn(-c4ccc(-c5cnn(C6CCNCC6)c5)cc4)c3n2)cn1 [Compound A23, (1-methyl-1H-pyrazol-4-yl)-{9-[4-(1-piperidin-4-yl-1H-pyrazol-4-yl)-phenyl]-9H-purin-2-yl}-amine]
23 | 1000 to 5000 | Cn1cc(Nc2ncc3nc(N)n(-c4ccc(-c5cnn(C)c5)cc4)c3n2)cn1 [Compound A24, N2-(1-methyl-1H-pyrazol-4-yl)-9-[4-(1-methyl-1H-pyrazol-4-yl)-phenyl]-9H-purine-2,8-diamine]
24 | 5000 to 10000 | CCn1cc(Nc2ncc3nc(N)n(-c4ccc(C(=O)NCCO)cc4)c3n2)cn1 [Compound A25, 4-[8-amino-2-(1-ethyl-1H-pyrazol-4-ylamino)-purin-9-yl]-N-(2-hydroxy-ethyl)-benzamide]
25 | 1000 to 5000 | Cn1cc(Nc2ncc3nc(N)n(-c4ccc(-c5cnn(C6CCNCC6)c5)cc4)c3n2)cn1 [Compound A26, N2-(1-methyl-1H-pyrazol-4-yl)-9-[4-(1-piperidin-4-yl-1H-pyrazol-4-yl)-phenyl]-9H-purine-2,8-diamine]
26 | 1000 to 5000 | NC(=O)[C@@H]1CC[C@@H](Nc2ncc3ncn(-c4ccc(I)c(F)c4)c3n2)C1 [Compound A31, (1R,3R)-3-[9-(3-fluoro-4-iodo-phenyl)-9H-purin-2-ylamino]-cyclopentanecarboxylic acid amide]
27 | 1000 to 5000 | CCOc1ccc(-n2cnc3cnc(N[C@@H]4CC[C@@H](C(N)=O)C4)nc32)cc1 [Compound A32, (1R,3R)-3-[9-(4-ethoxy-phenyl)-9H-purin-2-ylamino]-cyclopentanecarboxylic acid amide]
28 | 1000 to 5000 | NC(=O)[C@@H]1CC[C@@H](Nc2ncc3ncn(-c4ccc(I)cc4)c3n2)C1 [Compound A33, (1R,3R)-3-[9-(4-iodo-phenyl)-9H-purin-2-ylamino]-cyclopentanecarboxylic acid amide]
29 | 1000 to 5000 | COCCOc1ccc(-n2cnc3cnc(N[C@@H]4CC[C@@H](C(N)=O)C4)nc32)cc1 [Compound A34, (1R,3R)-3-{9-[4-(2-methoxy-ethoxy)-phenyl]-9H-purin-2-ylamino}-cyclopentanecarboxylic acid amide]
30 | < 1000 | COCCn1cc(-c2ccc(-n3cnc4cnc(N[C@@H]5CC[C@@H](C(N)=O)C5)nc43)cc2F)cn1 [Compound A35, (1R,3R)-3-(9-{3-fluoro-4-[1-(2-methoxy-ethyl)-1H-pyrazol-4-yl]-phenyl}-9H-purin-2-ylamino)-cyclopentanecarboxylic acid amide]
31 | < 1000 | CCOCCn1cc(-c2ccc(-n3cnc4cnc(N[C@@H]5CC[C@@H](C(N)=O)C5)nc43)cc2)cn1 [Compound A36, (1R,3R)-3-(9-{4-[1-(2-ethoxy-ethyl)-1H-pyrazol-4-yl]-phenyl}-9H-purin-2-ylamino)-cyclopentanecarboxylic acid amide]
32 | < 1000 | Cc1ccc2cc(-n3cnc4cnc(N[C@@H]5CC[C@@H](C(N)=O)C5)nc43)ccc2n1 [Compound A37, (1R,3R)-3-[9-(2-methyl-quinolin-6-yl)-9H-purin-2-ylamino]-cyclopentanecarboxylic acid amide]
33 | 5000 to 10000 | COCCn1cc(-c2ccc(-n3cnc4cnc(N[C@@H]5CCNC5)nc43)cc2)cn1 [Compound A38, (9-{4-[1-(2-methoxy-ethyl)-1H-pyrazol-4-yl]-phenyl}-9H-purin-2-yl)-(R)-pyrrolidin-3-yl-amine]
34 | 1000 to 5000 | COCCn1cc(-c2ccc(-n3cnc4cnc(N[C@@H]5CCN(C(=O)CCN6CCN(C)CC6)C5)nc43)cc2)cn1 [Compound A39, 1-[(R)-3-(9-{4-[1-(2-methoxy-ethyl)-1H-pyrazol-4-yl]-phenyl}-9H-purin-2-ylamino)-pyrrolidin-1-yl]-3-(4-methyl-piperazin-1-yl)-propan-1-one]
